Measurements reported in US20110044938A1 (NYCOMED GMBH, priority 2006, published 2011).
One block for each compound: values may come before it.

Tests used:
[1] = tested on: RKO (RKOp27) human colon adenocarcinoma cells; assay: Alamar Blue cell viability assay, anti-proliferative/cytotoxic activity on proliferating RKO subclones; format: cell-based; conditions: RKOp27, 72 h, RKO p27 uninduced (proliferating) cells, value = class bound given in Table A, read-out: −logIC50 RKO p27 uninduced (proliferating) (converted)
How it was run: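 RKOp27 subclones (5000 cells/well) were exposed 24 h after seeding to semi-log compound dilutions in DMEM with 10% FCS, in quadruplicate, for 72 h at 37 °C. Viability was read by Alamar Blue fluorescence (544/590 nm) relative to untreated cells (1% DMSO medium). IC50 came from concentration-effect curves and is reported as −log IC50 [mol/l].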

[2] = tested on: subclones of RKO colon adenocarcinoma cells (RKOp27 or RKOp21) arrested by Ponasterone A; assay: Alamar Blue cell viability assay, cell cycle specific mode of action: cells arrested by ectopic p27Kip1 induced by Ponasterone A versus proliferating cells; format: cell-based; conditions: Homo sapiens, RKO p27 induced (arrested) cells, 10 μM Ponasterone A, 72 hours, value = class bound given in Table A, read-out: −logIC50 RKO p27 induced (arrested) (converted)
How it was run: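 RKOp27 or RKOp21 cells, 15000/well in DMEM/10% FCS, either arrested by p27Kip1 induced with 10 μM Ponasterone A or proliferating without inducer; compound added after 24 h, 72 h at 37° C. Alamar Blue fluorescence (544/590 nm), viability as % of untreated cells; −log IC50 reported.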

Compound: N#Cc1c(NC(=O)/C=C/c2cccnc2)sc2c1CCC(COC(=O)N1CCCCC1)C2 (stereo not drawn) [Example 83, Piperidine-1-carboxylic acid 3-cyano-2-((E)-3-pyridin-3-yl-allanoylamino)-4,5,6,7-tetrahydro-benzo[b]thiophen-6-ylmethyl ester]
IC50 [1]: ≤ 0.501 µM
IC50 [2]: ≥ 100 µM

Compound: CCCNC(=O)OC1CCc2c(sc(NC(=O)/C=C/c3cccnc3)c2C#N)C1 (stereo not drawn) [Example 107, Propyl-carbamic acid 3-cyano-2-((E)-3-pyridin-3-yl-allanoylamino)-4,5,6,7-tetrahydro-benzo[b]thiophen-6-yl ester]
IC50 [1]: ≤ 0.501 µM
IC50 [2]: ≥ 100 µM

Compound: N#Cc1c(NC(=O)/C=C/c2cccnc2)sc2c1CCC(OC(=O)N1CCOCC1)C2 (stereo not drawn) [Example 61, Morpholine-4-carboxylic acid 3-cyano-2-((E)-3-pyridin-3-yl-allanoylamino)-4,5,6,7-tetrahydro-benzo[b]thiophen-6-yl ester]
IC50 [1]: ≤ 0.501 µM
IC50 [2]: ≥ 100 µM

Compound: CCOc1ccccc1/C=C/C(=O)Nc1sc2c(c1C#N)CCC(OC(=O)NCc1cccnc1)C2 (stereo not drawn) [Example 14, Pyridin-3-ylmethyl-carbamic acid 3-cyano-2-[(E)-3-(2-ethoxy-phenyl)-allanoylamino]-4,5,6,7-tetrahydro-benzo[b]thiophen-6-yl ester]
IC50 [1]: 0.501 to 2 µM
IC50 [2]: ≥ 50.1 µM

Compound: Cc1nn(C)cc1CNC(=O)OC1CCc2c(sc(NC(=O)/C=C/c3cccnc3)c2C#N)C1 (stereo not drawn) [Example 57, (1,3-Dimethyl-1H-pyrazol-4-ylmethyl)-carbamic acid 3-cyano-2-((E)-3-pyridin-3-yl-allanoylamino)-4,5,6,7-tetrahydro-benzo[b]thiophen-6-yl ester]
IC50 [1]: ≤ 0.501 µM
IC50 [2]: ≥ 100 µM

Compound: COc1cccc(CCC(=O)Nc2sc3c(c2C#N)CCC(OC(=O)NCc2cccnc2)C3)c1 (stereo not drawn) [Example 259, Pyridin-3-ylmethyl-carbamic acid 3-cyano-2-[3-(3-methoxy-phenyl)-propanoylamino]-4,5,6,7-tetrahydro-benzo[b]thiophen-6-yl ester]
IC50 [1]: ≤ 0.501 µM
IC50 [2]: ≥ 100 µM

Compound: N#Cc1c(NC(=O)/C=C/c2cccnc2)sc2c1CC[C@H](COC(=O)N1CCCC1)C2 [Example 68a, Pyrrolidme-1-carboxyhc acid (S)-3-cyano-2-((E)-3-pyridin-3-yl-allanoylamino)-4,5,6,7-tetrahydro-benzo[b]thiophen-6-ylmethyl ester]
IC50 [1]: ≤ 0.501 µM
IC50 [2]: ≥ 100 µM

Compound: CC(C)NC(=O)OCC1CCc2c(sc(NC(=O)/C=C/c3cccnc3)c2C#N)C1 (stereo not drawn) [Example 101, Isopropyl-carbamic acid 3-cyano-2-((E)-3-pyridin-3-yl-allanoylamino)-4,5,6,7-tetrahydro-benzo[b]thiophen-6-ylmethyl ester]
IC50 [1]: ≤ 0.501 µM
IC50 [2]: ≥ 100 µM

Compound: CCOC(=O)OC1CCc2c(sc(NC(=O)/C=C/c3cccnc3)c2C#N)C1 (stereo not drawn) [Example 4, Carbonic acid 3-cyano-2-((E)-3-pyridin-3-yl-allanoylamino)-4,5,6,7-tetrahydro-benzo[b]thiophen-6-yl ester ethyl ester]
IC50 [1]: ≤ 0.501 µM
IC50 [2]: ≥ 100 µM

Compound: N#Cc1c(NC(=O)/C=C/c2cccnc2)sc2c1CC[C@@H](COC(=O)N1CC(O)C1)C2 [Example 73b, 3-Hydroxy-azetidine-l - carboxylic acid (R)-3-cyano-2-((E)-3-pyridin-3-yl-allanoylamino)-4,5,6,7-tetrahydro-benzo[b]thiophen-6-ylmethyl ester]
IC50 [1]: 0.501 to 2 µM
IC50 [2]: ≥ 100 µM

Compound: CN(C)C(=O)OC1CCc2c(sc(NC(=O)/C=C/c3cccnc3)c2C#N)C1 (stereo not drawn) [Example 78, Dimethyl-carbamic acid 3-cyano-2-((E)-3-pyridin-3-yl-allanoylamino)-4,5,6,7-tetrahydro-benzo[b]thiophen-6-yl ester]
IC50 [1]: ≤ 0.501 µM
IC50 [2]: ≥ 100 µM

Compound: N#Cc1c(NC(=O)/C=C/c2cccnc2)sc2c1CCC(COC(=O)N1CCCC(O)C1)C2 (stereo not drawn) [Example 87, 3-Hydroxy-piperidine-1-carboxylic acid 3-cyano-2-((E)-3-pyridin-3-yl-allanoylamino)-4,5,6,7-tetrahydro-benzo[b]thiophen-6-ylmethyl ester]
IC50 [1]: ≤ 0.501 µM
IC50 [2]: ≥ 100 µM

Compound: N#Cc1c(NC(=O)/C=C/c2cccnc2)sc2c1CCC(COC(=O)N1CC=CC1)C2 (stereo not drawn) [Example 86, 2,5-Dihydro-pyrrole-1-carboxylic acid 3-cyano-2-((E)-3-pyridin-3-yl-allanoylamino)-4,5,6,7-tetrahydro-benzo[b]thiophen-6-ylmethyl ester]
IC50 [1]: ≤ 0.501 µM
IC50 [2]: ≥ 100 µM

Compound: N#Cc1c(NC(=O)/C=C/c2cccnc2)sc2c1CCC(OC(=O)NCc1ncc[nH]1)C2 (stereo not drawn) [Example 39, (1H-Imidazol-2-ylmethyl)-carbamic acid 3-cyano-2-((E)-3-pyridin-3-yl-allanoylamino)-4,5,6,7-tetrahydro-benzo[b]thiophen-6-yl ester]
IC50 [1]: 0.501 to 2 µM
IC50 [2]: ≥ 100 µM

Compound: N#Cc1c(NC(=O)/C=C/c2cccnc2)sc2c1CCC(COC(=O)n1cccc1)C2 (stereo not drawn) [Example 141, Pyrrole-1-carboxylic acid 3-cyano-2-((E)-3-pyridin-3-yl-allanoylamino)-4,5,6,7-tetrahydro-benzo[b]thiophen-6-ylmethyl ester]
IC50 [1]: 0.501 to 2 µM
IC50 [2]: ≥ 100 µM

Compound: N#Cc1c(NC(=O)/C=C/c2cccnc2)sc2c1CCC(OC(=O)N1CCCCC1)C2 (stereo not drawn) [Example 111, Piperidine-1-carboxylic acid 3-cyano-2-((E)-3-pyridin-3-yl-allanoylamino)-4,5,6,7-tetrahydro-benzo[b]thiophen-6-yl ester]
IC50 [1]: ≤ 0.501 µM
IC50 [2]: ≥ 100 µM

Compound: COc1cccc(CCC(=O)Nc2sc3c(c2C#N)CCC(OC(=O)NCc2conc2C)C3)c1 (stereo not drawn) [Example 228, (3-Methyl-isoxazol-4-ylmethyl)-carbamic acid 3-cyano-2-[3-(3-methoxy-phenyl)-propanoylamino]-4,5,6,7-tetrahydro-benzo[b]thiophen-6-yl ester]
IC50 [1]: ≤ 0.501 µM
IC50 [2]: ≥ 100 µM

Further lines, with some results ahead:

IC50 [2]: ≥ 50.1 µM
Compound: Cc1cc(CNC(=O)OCC2CCc3c(sc(NC(=O)CC(C)c4cccnc4)c3C#N)C2)on1 (stereo not drawn) [Example 370, (3-Methyl-isoxazol-5-ylmethyl)-carbamic acid 3-cyano-2-(3-pyridin-3-yl-butanoylamino)-4,5,6,7-tetrahydro-benzo[b] thiophen-6-ylmethyl ester]
IC50 [1]: 0.501 to 2 µM

IC50 [2]: ≥ 100 µM
Compound: COc1cccc(C(C)CC(=O)Nc2sc3c(c2C#N)CCC(COC(=O)NCc2conc2C)C3)c1 (stereo not drawn) [Example 365]
IC50 [1]: 0.501 to 2 µM

IC50 [2]: ≥ 50.1 µM
Compound: CC(CC(=O)Nc1sc2c(c1C#N)CCC(OC(=O)NCC1CCCCO1)C2)c1ccccc1 (stereo not drawn) [Example 296, (Tetrahydropyran-2-ylmethyl)-carbamic acid 3-cyano-2-(3-phenyl-butanoylamino)-4,5,6,7-tetrahydro-benzo[b]thiophen-6-yl ester]
IC50 [1]: 0.501 to 2 µM

IC50 [2]: ≥ 100 µM
Compound: CNC(=O)OCC1CCc2c(sc(NC(=O)CCc3cccnc3)c2C#N)C1 (stereo not drawn) [Example 162, Methyl-carbamic acid 3-cyano-2-(3-pyridin-3-yl-propanoylamino)-4,5,6,7-tetrahydro-benzo[b]thiophen-6-ylmethyl ester]
IC50 [1]: 0.501 to 2 µM

IC50 [2]: ≥ 100 µM
Compound: CCNC(=O)OCC1CCc2c(sc(NC(=O)/C=C/c3ccccc3OCC)c2C#N)C1 (stereo not drawn) [Example 10, Ethyl-carbamic acid 3-cyano-2-[(E)-3-(2-ethoxy-phenyl)-allanoylamino]-4,5,6,7-tetrahydro-benzo[b]thiophen-6-ylmethyl ester]
IC50 [1]: ≤ 0.501 µM

IC50 [2]: ≥ 10 µM
Compound: Cc1nc(CNC(=O)OCC2CCc3c(sc(NC(=O)CC(C)c4cccnc4)c3C#N)C2)cs1 (stereo not drawn) [Example 377, (2-Methyl-thiazol-4-ylmethyl)-carbamic acid 3-cyano-2-(3-pyridin-3-yl-butanoylamino)-4,5,6,7-tetrahydro-benzo[b]thiophen-6-ylmethyl ester]
IC50 [1]: 0.501 to 2 µM

IC50 [2]: ≥ 100 µM
Compound: CCOc1ccccc1CCC(=O)Nc1sc2c(c1C#N)CCC(COC(=O)NCc1conc1C)C2 (stereo not drawn) [Example 198, (3-Methyl-isoxazol-4-ylmethyl)-carbamic acid 3-cyano-2-[3-(2-ethoxy-phenyl)-propanoylamino]-4,5,6,7-tetrahydro-benzo[b]thiophen-6-ylmethyl ester]
IC50 [1]: ≤ 0.501 µM

IC50 [2]: ≥ 50.1 µM
Compound: CC(CC(=O)Nc1sc2c(c1C#N)CCC(COC(=O)NCc1cccn1C)C2)c1cccnc1 (stereo not drawn) [Example 285, (1-Methyl-1H-pyrrol-2-ylmethyl)-carbamic acid 3-cyano-2-(3-pyridin-3-yl-butanoylamino)-4,5,6,7-tetrahydro-benzo[b]thiophen-6-ylmethyl ester]
IC50 [1]: 0.501 to 2 µM

IC50 [2]: ≥ 50.1 µM
Compound: CC(CC(=O)Nc1sc2c(c1C#N)CCC(COC(=O)NCc1ccccn1)C2)c1ccccc1 (stereo not drawn) [Example 304, Pyridin-2-ylmethyl-carbamic acid 3-cyano-2-(3-phenyl-butanoylamino)-4,5,6,7-tetrahydro-benzo[b] thiophen-6-ylmethyl ester]
IC50 [1]: ≤ 0.501 µM

IC50 [2]: ≥ 50.1 µM
Compound: Cc1cc(CNC(=O)OC2CCc3c(sc(NC(=O)CC(C)c4ccccc4)c3C#N)C2)on1 (stereo not drawn) [Example 373, (3-Methyl-isoxazol-5-ylmethyl)-carbamic acid 3-cyano-2-(3-phenyl-butanoylamino)-4,5,6,7-tetrahydro-benzo[b]thiophen-6-yl ester]
IC50 [1]: ≤ 0.501 µM
